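1) Cells in 96-well plates. 2) Compound, 48 h, 5 concentrations. 3) Linear interpolation between surrounding doses. 4) Unreached endpoint = highest concentration. GI50 = concentration required for 50% inhibition of growth. The concentration for full growth arrest is given as TGI.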
Legend:
Test in all cases: DTP human tumour cell line panel, 48 h
RPMI-8226 leukemia = test system: RPMI-8226 leukemia
OVCAR-3 ovarian = test system: OVCAR-3 ovarian
SK-MEL-2 melanoma = test system: SK-MEL-2 melanoma
NCI-H460 lung = test system: NCI-H460 lung
SF-268 CNS = test system: SF-268 CNS
UO-31 renal = test system: UO-31 renal
MOLT-4 leukemia = test system: MOLT-4 leukemia
M14 melanoma = test system: M14 melanoma
A549 NSCLC = test system: A549 NSCLC
HCC-2998 colon = test system: HCC-2998 colon

Compound `CC(C)=NN/C(=N\S(=O)(=O)c1ccc(Oc2cccc(Cl)c2C#N)cc1)Nc1ccc(Cl)cc1` has a TGI (RPMI-8226 leukemia) greater than 100 µM, a TGI (OVCAR-3 ovarian) greater than 100 µM and a TGI (SK-MEL-2 melanoma) greater than 100 µM. For the same compound, the TGI (NCI-H460 lung) was greater than 100 µM, the TGI (SF-268 CNS) was greater than 100 µM and the TGI (UO-31 renal) was greater than 100 µM. The TGI (MOLT-4 leukemia) was greater than 100 µM, the TGI (M14 melanoma) was greater than 100 µM and the TGI (A549 NSCLC) was greater than 100 µM.
In the case of `COc1cccc(CCN2CCN(CCCc3ccccc3)CC2)c1`, the TGI (RPMI-8226 leukemia) is reported as greater than 100 µM, the TGI (OVCAR-3 ovarian) is reported as greater than 100 µM and the TGI (SK-MEL-2 melanoma) is reported as greater than 100 µM. It also gave a TGI (NCI-H460 lung) greater than 100 µM, a TGI (SF-268 CNS) greater than 100 µM and a TGI (UO-31 renal) greater than 100 µM. The TGI (MOLT-4 leukemia) was greater than 100 µM, the TGI (M14 melanoma) was 60.6 µM and the TGI (A549 NSCLC) was greater than 100 µM. The TGI (HCC-2998 colon) was greater than 100 µM.
Compound `NCCCN(CCCN(C(=O)Nc1ccccc1)c1ccccc1)C(=O)Nc1ccccc1` has a TGI (RPMI-8226 leukemia) of 73 µM, a TGI (SK-MEL-2 melanoma) of 55.6 µM and a TGI (NCI-H460 lung) of 94.8 µM. It also gave a TGI (SF-268 CNS) greater than 100 µM, a TGI (UO-31 renal) of 65.8 µM and a TGI (MOLT-4 leukemia) greater than 100 µM. The TGI (M14 melanoma) was 44.8 µM, the TGI (A549 NSCLC) was greater than 100 µM and the TGI (HCC-2998 colon) was 62.3 µM.
With `CSCCC(N)C(=O)NCCNc1ccc(NCCNC(=O)C(N)CCSC)c2c1C(=O)c1ccccc1C2=O` (centres undefined) the TGI (OVCAR-3 ovarian) was 9.44 µM, the TGI (SK-MEL-2 melanoma) was 7.59 µM and the TGI (NCI-H460 lung) was 9.33 µM. It also gave a TGI (SF-268 CNS) of 4.55 µM, a TGI (UO-31 renal) of 4.39 µM and a TGI (MOLT-4 leukemia) of 4.23 µM. The TGI (M14 melanoma) was 12 µM, the TGI (A549 NSCLC) was 3.66 µM and the TGI (HCC-2998 colon) was 2.33 µM.
For `NC(=O)c1cccc([N+](=O)[O-])c1`, the TGI (RPMI-8226 leukemia) was greater than 100 µM, the TGI (OVCAR-3 ovarian) was greater than 100 µM and the TGI (SK-MEL-2 melanoma) was greater than 100 µM. For the same compound, the TGI (NCI-H460 lung) was greater than 100 µM, the TGI (SF-268 CNS) was greater than 100 µM and the TGI (UO-31 renal) was greater than 100 µM. The TGI (MOLT-4 leukemia) was greater than 100 µM, the TGI (M14 melanoma) was greater than 100 µM and the TGI (A549 NSCLC) was greater than 100 µM. It also gave a TGI (HCC-2998 colon) greater than 100 µM.
Compound `CCCCC(=O)c1c(O)nc2sccn2c1=O` has a TGI (RPMI-8226 leukemia) greater than 10 µM, a TGI (OVCAR-3 ovarian) greater than 10 µM and a TGI (SK-MEL-2 melanoma) greater than 10 µM. The TGI (NCI-H460 lung) was greater than 10 µM, the TGI (SF-268 CNS) was greater than 10 µM and the TGI (UO-31 renal) was greater than 10 µM. For the same compound, the TGI (MOLT-4 leukemia) was greater than 10 µM, the TGI (M14 melanoma) was greater than 10 µM and the TGI (A549 NSCLC) was greater than 10 µM. For the same compound, the TGI (HCC-2998 colon) was greater than 10 µM.
With `COc1cc2ccc(=O)oc2cc1O` the TGI (RPMI-8226 leukemia) was 438 µM, the TGI (OVCAR-3 ovarian) was 330 µM and the TGI (SK-MEL-2 melanoma) was 577 µM. It also gave a TGI (NCI-H460 lung) of 139 µM, a TGI (SF-268 CNS) greater than 585 µM and a TGI (UO-31 renal) of 183 µM. The TGI (MOLT-4 leukemia) was 223 µM, the TGI (A549 NSCLC) was 320 µM and the GI50 (HCC-2998 colon) was 56.4 µM. For the same compound, the TGI (HCC-2998 colon) was 305 µM.
`CCCCOC(=O)C(NC(C(=O)OCCCC)c1cc(C(C)(C)C)c(O)c(C(C)(C)C)c1)c1cc(C(C)(C)C)c(O)c(C(C)(C)C)c1` (centres undefined) was tested, and the TGI (RPMI-8226 leukemia) was greater than 100 µM, the TGI (OVCAR-3 ovarian) was greater than 100 µM and the TGI (SK-MEL-2 melanoma) was greater than 100 µM. It also gave a TGI (SF-268 CNS) greater than 100 µM, a TGI (UO-31 renal) greater than 100 µM and a TGI (MOLT-4 leukemia) greater than 100 µM. For the same compound, the TGI (M14 melanoma) was greater than 100 µM and the TGI (A549 NSCLC) was greater than 100 µM.
Compound `ClCCCc1ccccc1C1=NCCc2ccccc21` has a TGI (RPMI-8226 leukemia) of 23.3 µM, a TGI (OVCAR-3 ovarian) greater than 100 µM and a TGI (SK-MEL-2 melanoma) greater than 100 µM. It also gave a TGI (NCI-H460 lung) greater than 100 µM, a TGI (SF-268 CNS) greater than 100 µM and a TGI (UO-31 renal) greater than 100 µM. For the same compound, the TGI (MOLT-4 leukemia) was greater than 100 µM, the TGI (M14 melanoma) was greater than 100 µM and the TGI (A549 NSCLC) was greater than 100 µM. It also gave a TGI (HCC-2998 colon) greater than 100 µM.
Work on `CC1(C)N/C(=C\C=O)C(C)(C)N1O` yielded a TGI (RPMI-8226 leukemia) greater than 100 µM, a TGI (OVCAR-3 ovarian) greater than 100 µM and a TGI (SK-MEL-2 melanoma) greater than 100 µM. The TGI (NCI-H460 lung) was greater than 100 µM, the TGI (SF-268 CNS) was greater than 100 µM and the TGI (UO-31 renal) was greater than 100 µM. For the same compound, the TGI (MOLT-4 leukemia) was greater than 100 µM, the TGI (M14 melanoma) was greater than 100 µM and the TGI (A549 NSCLC) was greater than 100 µM. The TGI (HCC-2998 colon) was greater than 100 µM.
With `CO/N=C1\CC(NC(=O)CNC(=O)OC(C)(C)C)c2ccsc21` (centres undefined) the TGI (OVCAR-3 ovarian) was greater than 100 µM, the TGI (SK-MEL-2 melanoma) was greater than 100 µM and the TGI (NCI-H460 lung) was greater than 100 µM. For the same compound, the TGI (SF-268 CNS) was greater than 100 µM, the TGI (UO-31 renal) was greater than 100 µM and the TGI (MOLT-4 leukemia) was greater than 100 µM. It also gave a TGI (M14 melanoma) greater than 100 µM, a TGI (A549 NSCLC) greater than 100 µM and a TGI (HCC-2998 colon) greater than 100 µM.

Source: PubChem BioAssay (NCI)
